# Assay results: ChEMBL document CHEMBL1147496, “Synthesis and anti-inflammatory activity of some [4,6-(4-substituted aryl)-2-thioxo-1,2,3,4-tetrahydro-pyrimidin-5-yl]-acetic acid derivatives” (2004)
# Tested on: Rattus norvegicus
# Test: Anti-inflammatory activity was determined by carangeenan-induced rat paw edema test in albino rats
# Assay type: functional
# Set-up: concentration or dose not given beside the values
row,Compound,Inhibition [%]
1,O=C(O)CC1=C(c2ccc(Cl)cc2)N=C(S)NC1c1cccs1 (stereo not drawn),16
2,Cc1ccc(C2=C(CC(=O)O)C(c3ccccc3)NC(S)=N2)cc1 (stereo not drawn),28
3,O=C(O)CC1=C(c2ccc(Cl)cc2)N=C(S)NC1c1ccc(Cl)cc1 (stereo not drawn),25
4,O=C(O)CC1=C(c2ccc(Cl)cc2)N=C(S)NC1c1ccco1 (stereo not drawn),9
5,O=C(O)CC1=C(c2ccccc2)N=C(S)NC1c1ccccc1 (stereo not drawn),17
6,O=C(O)CC1=C(c2ccccc2)N=C(S)NC1c1cccnc1 (stereo not drawn),15
7,O=C(O)CC1=C(c2ccccc2)N=C(S)NC1c1cccs1 (stereo not drawn),21
8,Cc1ccc(C2=C(CC(=O)O)C(c3ccc(Cl)cc3)NC(S)=N2)cc1 (stereo not drawn),22
9,COc1ccc(C2NC(S)=NC(c3ccc(Cl)cc3)=C2CC(=O)O)cc1 (stereo not drawn),35
10,COc1ccc(C2NC(S)=NC(c3ccc(C)cc3)=C2CC(=O)O)cc1 (stereo not drawn),33
11,Cc1ccc(C2=C(CC(=O)O)C(c3cccs3)NC(S)=N2)cc1 (stereo not drawn),10
12,O=C(O)CC1=C(c2ccc(Cl)cc2)N=C(S)NC1c1cccnc1 (stereo not drawn),11
13,O=C(O)CC1=C(c2ccccc2)N=C(S)NC1c1ccc(Cl)cc1 (stereo not drawn),30
14,O=C(O)CC1=C(c2ccccc2)N=C(S)NC1c1ccco1 (stereo not drawn),19
15,COc1ccc(C2NC(S)=NC(c3ccccc3)=C2CC(=O)O)cc1 (stereo not drawn),32
16,Cc1ccc(C2=C(CC(=O)O)C(c3ccco3)NC(S)=N2)cc1 (stereo not drawn),11
17,Cc1ccc(C2=C(CC(=O)O)C(c3cccnc3)NC(S)=N2)cc1 (stereo not drawn),7
18,O=C(O)CC1=C(c2ccc(Cl)cc2)N=C(S)NC1c1ccccc1 (stereo not drawn),20
